Assay results reported in patent publication US7615628B2, “Imidazopyridine derivatives” (Riken, priority 2005, dated 2009).

Tests used:
[1] = test system: cultured human fibrosarcoma HT-1080 cells; test: MTT assay, cell growth inhibitory activity on cancer cells; assay type: cell-based; details: for higher growth inhibitory activity on cancer cells than on normal cells: HT-1080 cancer cells versus WI-38 normal cells, from IC50 values; for IC50: Homo sapiens, MTT assay, 72 hours incubation at 37° C., HT-1080 cells, value ± standard deviation
Procedure: (§1) MTT assay was performed to examine two test compounds, i.e., 7-(2-thienyl)-3-(2-deoxy-1-β-D-ribofuranosyl)-3H-imidazo[4,5-b]pyridine (herein referred to as Compound IA) and 5-amino-7-(2-thienyl)-3-(2-deoxy-1-β-D-ribofuranosyl)-3H-imidazo[4,5-b]pyridine (herein referred to as Compound IB) for their cell growth inhibitory effect on cultured human fibrosarcoma HT-1080 cells and human fetal lung fibroblast (normal diploid fibroblast) WI-38 cells. These cells (1×10^4 cells/ml) were seeded in 96-well microplates (IWAKI) at 90 μl/well. After culturing at 37° C. for 3 to 4 hours, test compound solutions (10 μl each), which had been dissolved in PBS-5% DMSO and adjusted to various concentrations, were added and incubated at 37° C. for 72 hours. To the wells containing these solutions, a PBS solution of MTT (5 mg/ml) was added in 25 μl volumes and incubated at 37° C. for an additional 2 hours, followed by addition of a 50% DMF-20% SDS solution in 100 μl to each well. After incubation was continued at 37° C. for 16 hours, the absorbance at 570 nm was measured using a microplate reader to calculate % inhibition according to the following equation. % Inhibition=100×[1−(Abssample−Absbackground)/(Absnegative control−Absbackground)] [Expression 2]
(§2) Abssample: Absorbance in the presence of test compound
(§3) Absbackground: Absorbance in the absence of cells and test compound
Absnegative control: Absorbance in the absence of test compound
The concentration (IC50 μM) required for each test compound to cause 50% inhibition of cell growth was calculated from a concentration-inhibition curve. The IC50 values are shown in Table 1 below, along with their standard deviation.

[2] = test system: human fetal lung fibroblast (normal diploid fibroblast) WI-38 cells; test: MTT assay, cell growth inhibitory activity on normal cells; assay type: cell-based; details: 72 hours incubation at 37° C., WI-38 normal cells, value ± standard deviation
Procedure: as §1, with “To the wells containing these solutions, a PBS solution of MTT (5 mg/ml) was added in 25 μl volumes and incubated at 37° C. for an additional 2 hours, followed by addition of a 50% DMF-20% SDS solution in 100 μl to each well.” left out, “[Expression 2]” left out
as §2, §3
Absnegative control: Absorbance in the absence of test compound […]

Row | IC50 [1] [µM] | Structure (SMILES) | higher growth inhibitory activity on cancer cells than on normal cells [1] | IC50 [2] [µM]
1 | 62 | OC[C@H]1O[C@@H](n2cnc3c(-c4cccs4)ccnc32)C[C@H]1O [Compound IA, 7-(2-thienyl)-3-(2-deoxy-1-β-D-ribofuranosyl)-3H-imidazo[4,5-b]pyridine] | about 5 fold | 290 ± 130
2 | 34 | Nc1cc(-c2cccs2)c2ncn([C@H]3C[C@@H](O)[C@@H](CO)O3)c2n1 [Compound IB, 5-amino-7-(2-thienyl)-3-(2-deoxy-1-β-D-ribofuranosyl)-3H-imidazo[4,5-b]pyridine] | about 10 fold | 330 ± 40
